Test results taken from US20240108645A1, “SENESCENCE AND SENESCENCE ASSOCIATED SECRETORY PHENOTYPE” (Metro Biotech NSW Pty Ltd, priority 2013, published 2024).
“Also recorded” adds a separate entry of the source. Blank lines part the entries; values can stand above or below the compound they belong to.

Assays:
p16^INK4a [1] = assay: Imiquimod-induced skin senescence in p16^LUC mice, bioluminescence imaging; format: in vivo, SKH1 hairless p16^LUC mice
Source text: In order to study the effects of NAD^+ agonists on cellular senescence associated with the skin, which is associated with inflammation, senescence was induced in a luciferase knockin (p16^LUC) mouse (Burd et al. (2013) Cell 152: 340-351) using topical application of Imiquimod. Imiquimod (IMQ) is an immune modulator topically applied for skin conditions such as melanoma and genital warts. The side effect of IMQ is severe, painful inflammation and aging of the skin.
P16^LUC mice contain the firefly luciferase cDNA inserted into the translational start site of the endogenous p16^INK4a gene. Conditions which induce expression of the p16^INK4a gene, and therefore induce cellular senescence, also induce expression of firefly luciferase in p16^LUC mice (Burd et al. […] Cell 152:340-351; Sorrentino et al. (2014) The Journal of Clinical Investigation, 124(1): 169-351).
The following formulations were prepared: • 1. Cream carrier (containing no IMQ) (control or ctrl); • 2. IMQ cream (containing 5% IMQ) mixed with 10% water (IMQ); and • 3. IMQ cream (containing 5% IMQ) mixed with […] NMN (equating to 5% NMN) (IMQ+NMN).
Each of 1, 2 and 3 were applied daily to the rump of SKH1 hairless p16^LUC mice for 4 days. The animals were subjected to bioluminescence imaging as a readout for senescence. Areas of fluorescence are indicated as darkened areas in FIG. 4.

[2] = Blood glucose and free water (echoMRI) in dexamethasone treated rats; format: in vivo, Sprague-Dawley rats; settings: one day after injection
Experimental: To study the effects of NAD^+ agonists on senescence associated with treatment with corticoids, 250 g Sprague-Dawley rats were administered daily intraperitoneal injections of the following formulations for 3 days: • 1. Vehicle: saline • 2. Dexamethasone: 0.8 mg/kg of animal dexamethasone sodium phosphate • 3. Dexamethasone+NMN: 0.8 mg/kg body weight dexamethasone sodium phosphate and 1.5 g/kg body weight NMN.
After 3 days, blood glucose was determined.
Free water was assessed by echMRI one day after injection of the above formulations.

C2C12 myoblasts [3] = assay: SA-β-Gal activity in C2C12 myoblasts by flow cytometry with C12FDG; format: cell-based
Experimental: To determine the ability of NAD^+ agonists to prevent or reduce senescence associated with treatment with corticoids, C2C12 myoblasts were assayed for SA-β-Gal activity following contact with vehicle, NMN, apigenin, dexamethasone, dexamethasone and NMN, and dexamethasone and apigenin. SA-β-Gal activity was determined using the fluorogenic substrate, C12FDG, by flow cytometry (protocol of Debacq-Chainiaux et al. Nature Protocols 2009). FIG. 7A: […] FIGS. 7B and 7C: […] SA-β-Gal activity was decreased with NMN and/or apigenin. All data are presented as the mean value. * p<0.05, **** p<0.0001, using two-way ANOVA multiple comparisons test.

3T3-L1 adipocytes [4] = assay: SA-β-gal chromogenic staining of dexamethasone treated 3T3-L1 adipocytes; format: cell-based; settings: 5 days; dexamethasone 1, 0.5, 0.1 or 0.01 mg/ml; 1 mM NMN, 25 mM apigenin
Experimental: To further investigate the effects of NAD^+ agonists on dexamethasone induced senescence, 3T3-L1 adipocytes were treated for 5 days with ethanol (control), or 1 mg/ml, 0.5 mg/ml, 0.1 mg/ml or 0.01 mg/ml of dexamethasone in combination with either DMSA, 1 mM NMN, 25 mM apigenin, or 1 mM NMN and 25 mM apigenin and subjected to senescence associated beta-galactosidase staining according to the chromogenic protocol of Debacq-Chainiaux F et al Nature Protocols 2009.

3T3-L1 adipocytes [5] = assay: Intracellular lipid content (oil red o) of 3T3-L1 adipocytes treated with antiretroviral agents; settings: for intracellular lipid content (oil red o, absorbance at 544 nm): 24 hr
Experimental: The ability of NAD^+ agonists to reduce or prevent lipodystrophy associated with anti-retroviral compounds was assessed. The ability of NMN to prevent or reduce lipodystrophy was tested by determining the lipid content of 3T3-L1 adipocytes treated with a vehicle, or the antiretroviral agent stavudine, either alone or in combination with NMN.
3T3-L1 adipocytes were treated for 24 hr with the HIV antiretroviral compound stavudine (10 nM) in the presence or absence of NMN (1 mM). Intracellular lipid content was assessed using oil red o staining, which was quantified by reading absorbance at 544 nm. Error bars: SD.
In order to further test the ability of NAD^+ agonists to reduce lipodystrophy associated with antiretroviral agents, 3T3-L1 adipocytes were treated for 24 hr with various antiretroviral compounds (30 μM) in the presence or absence of NMN (1 mM) or apigenin (25 μM). Intracellular lipid content was assessed using oil red o staining, which was quantified by reading absorbance at 544 nm.

C2C12 myoblasts [6] = assay: SA-β-Gal staining of C2C12 myoblasts incubated with various agents; format: cell-based
Experimental: The ability of NAD^+ agonists to reduce senescence associated with various agents was tested by inclubating C2C12 myoblasts with various agents in the presence or absence of NMN or apigenin, and the cells subsequent stained as mentioned above for SA-β-Gal activity. The following agents were tested: [table]

CD38 = target: T1, CD38 (Homo sapiens, UniProt P28907); settings: in vitro; Esande et al. (2013) Diabetes; cited from earlier work
T1 sequence (P28907 1-300): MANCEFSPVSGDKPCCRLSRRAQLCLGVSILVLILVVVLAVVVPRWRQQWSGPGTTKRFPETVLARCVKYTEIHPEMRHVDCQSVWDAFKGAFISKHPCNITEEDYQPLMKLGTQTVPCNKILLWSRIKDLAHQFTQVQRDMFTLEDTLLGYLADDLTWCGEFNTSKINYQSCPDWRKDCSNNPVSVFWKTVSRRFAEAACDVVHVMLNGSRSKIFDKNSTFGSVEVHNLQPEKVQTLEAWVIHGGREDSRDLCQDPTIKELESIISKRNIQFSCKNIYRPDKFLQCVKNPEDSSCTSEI

p16^INK4A [7] = assay: Doxorubicin-induced senescence in p16^LUC mice, bioluminescence/CT imaging; format: in vivo; settings: doxorubicin alone 1 mg/kg i.p.; imaging 24 hours after treatment
Experimental: Vehicle control: 10% DMSO in PBS administered intraperitoneally; • 2. Apigenin: administered in diet at 500 mg/kg of food in addition to vehicle control administered i.p.; • 3. […] Apigenin administered in chow diet at 500 mg/kg of food, and doxorubicin administered at 1 mg/kg body weight i.p. Apigenin was administered 4 days prior to administration of doxorubicin. The animals were subjected to bioluminescence/CT imaging (Spectrum-CT instrument, PerkinElmer) as a readout for senescence 24 hours after treatment was completed. Areas of luminescence are shown as lightened areas in FIG. 5 and are indicated by an arrow.

[8] = Body weight after doxorubicin; format: in vivo, male C57BL6 mice; settings: doxorubicin 10 mg/kg i.p. single dose at day 8
Experimental: Vehicle control: 10% DMSO in PBS administered intraperitoneally; • 2. Apigenin: administered in diet at 500 mg/kg of diet, in addition to vehicle control administered i.p.; • 3. […] Apigenin administered in diet of 500 mg/kg of diet, and doxorubicin administered at 10 mg/kg body weight i.p. Apigenin was administered 8 days prior to administration of a single dose of doxorubicin. Body weight was assessed during the course of the experiment as a read-out of general health and malaise, the results of which are shown in FIG. 11.

- p16^IN14a induction (bioluminescence) (p16^INK4a [1]; IMQ cream (5% IMQ) alone, applied daily to rump for 4 days): showed areas of p16^IN14a induction
Structure (SMILES): CC(C)Cn1cnc2c(N)nc3ccccc3c21 [IMQ, Imiquimod, reference compound]

Structure (SMILES): NC(=O)c1ccc[n+]([C@@H]2O[C@H](COP(=O)([O-])O)[C@@H](O)[C@H]2O)c1 [NMN, nicotinamide mononucleotide]
- erythema, scaling and redness of skin (p16^INK4a [1]; IMQ and NMN topical vs IMQ): less erythema, scaling and redness
- p16^IN14a induction (bioluminescence) (p16^INK4a [1]; IMQ cream (5% IMQ) mixed with NMN (5% NMN), topical daily for 4 days, vs IMQ): little or no signs of p16^IN14a induction
- free water (echoMRI) ([2]; dexamethasone sodium phosphate 0.8 mg/kg plus NMN 1.5 g/kg i.p., vs dexamethasone): reversed this effect
- SA-β-Gal activity (FIG. 7A) (C2C12 myoblasts [3]; 48 hours, NMN 1 mM, both ethanol vehicle and dexamethasone (0.1 μg/ml) treated groups): significantly reduced SA-β-Gal activity
- SA-β-Gal activity (FIG. 7B) (C2C12 myoblasts [3]; 72 hours, dexamethasone sodium phosphate 250 nM or PBS, NMN 1 mM or apigenin 25 uM): decreased
- SA-β-Gal activity (FIG. 7C) (C2C12 myoblasts [3]; 96 hours, dexamethasone sodium phosphate 250 nM or PBS, NMN 1 mM or apigenin 25 uM): decreased
- percentage of cells which exhibited SA-β-Gal activity following treatment with dexamethasone (C2C12 myoblasts [3]; summary of FIGS. 7A-7C): reduced the percentage of cells which exhibited SA-β-Gal activity
- SA-β-gal staining (blue cells), dexamethasone induced senescence (3T3-L1 adipocytes [4]): reduced SA-β-gal staining; also recorded: reduce or prevent senescence induced by dexamethasone
- lipodystrophy (intracellular lipid content, oil red o) (3T3-L1 adipocytes [5]; NMN 1 mM, cells treated 24 hr with 30 μM AZT, 3TC, stavudine, Efavirenz, Lopinavir, Ritonavir, Tipranavir): reduced lipodystrophy
- intracellular lipid content (oil red o, absorbance at 544 nm) (3T3-L1 adipocytes [5]; stavudine 10 nM and NMN 1 mM, vs NMN and vehicle): no reduction in lipid content
- extent of senescence (proportion of cells stained blue, SA-β-Gal activity) (C2C12 myoblasts [6]; agents of the table of b212 with vs without apigenin or NMN): reduce the extent of senescence induced by the agents tested
- extent to which the cells undergo senescence (C2C12 myoblasts [6]; co-administration with AZT, 3TC, zalcitabine, efavirenze, lopinavir, ritonavir, nevirapine, tipranavir, tenofovir, invirase vs agent alone): reduces the extent to which the cells undergo senescence
- extent to which the cells undergo senescence (C2C12 myoblasts [6]; co-administration with PPARγ agonist rosiglitazone vs rosiglitazone alone): reduces the extent to which the cells undergo senescence
- extent to which the cells undergo senescence (C2C12 myoblasts [6]; co-administration with antiprotozoal agent quinacrine vs quinacrine alone): reduces the extent to which the cells undergo senescence
- extent to which the cells undergo senescence (C2C12 myoblasts [6]; co-administration with each of the chemotherapeutic agents listed in b109 vs agent alone): reduces the extent to which the cells undergo senescence
- extent to which the cells undergo senescence (C2C12 myoblasts [6]; co-administration with xanthine oxidase inhibitor allopurinol vs allopurinol alone): reduces the extent to which the cells undergo senescence
- extent to which the cells undergo senescence (C2C12 myoblasts [6]; co-administration with zolendronate vs zolendronate alone): reduces the extent to which the cells undergo senescence

Structure (SMILES): O=c1c(O)c(-c2ccc(O)c(O)c2)oc2cc(O)cc(O)c12 [quercetin, 2-(3,4-dihydroxyphenyl)-3,5,7-trihydroxy-4H-chromen-4-one, reference compound]
- inhibition of CD38 activity (CD38): inhibitors of CD38 activity in vitro

- p16^INK4A induction (bioluminescence) (p16^INK4A [7]): large areas of bioluminescence
Structure (SMILES): COc1cccc2c1C(=O)c1c(O)c3c(c(O)c1C2=O)C[C@@](O)(C(=O)CO)C[C@@H]3O[C@H]1C[C@H](N)[C@H](O)[C@H](C)O1 [doxorubicin, reference compound]
- body weight [8]: permanent loss of body weight for at least 40 days

Structure (SMILES): Cc1cn([C@H]2C=C[C@@H](CO)O2)c(=O)[nH]c1=O [stavudine, 2′,3′-didehydro-2′,3′-dideoxythymidine, reference compound]
- intracellular lipid content (oil red o, absorbance at 544 nm) (3T3-L1 adipocytes [5]; stavudine 10 nM alone, vs vehicle): reduction in lipid content

Structure (SMILES): C[C@@H]1C[C@H]2[C@@H]3CCC4=CC(=O)C=C[C@]4(C)[C@@]3(F)[C@@H](O)C[C@]2(C)[C@@]1(O)C(=O)CO [dexamethasone, reference compound]
- free water (echoMRI) ([2]; dexamethasone sodium phosphate 0.8 mg/kg i.p.): significantly reduced the amount of free water
